Test results taken from publication PMC6112376, “Comprehensive Analyses and Prioritization of Tox21 10K Chemicals Affecting Mitochondrial Function by in-Depth Mechanistic Studies” (Environmental Health Perspectives, 2018).
Like-named read-outs stand apart in the source and are kept apart here.

How the values were obtained:
HepG2 cells [1] = conditions: for IC50: read-out: MMP assays IC50 (µM) HepG2
rat primary hepatocytes [2] = tested on: rat primary hepatocytes
HepG2 cells [3] = conditions: cited from earlier work
rat primary hepatocytes [4] = assay: MMP assay in rat primary hepatocytes; conditions: for IC50: read-out: MMP assays IC50 (µM) Rat Hepatocytes
[5] = read-out: MMP assays IC50 (µM) qHTS-HepG2
[6] = read-out: MMP assays IC50 (µM), qHTS-HepG2

Row | Compound | MMP assays efficacy (%) HepG2 (HepG2 cells [1]) | IC50 (HepG2 cells [1]) | MMP assays efficacy (%) Rat Hepatocytes (rat primary hepatocytes [2]) | MMP assays efficacy (%) qHTS-HepG2 (HepG2 cells [3]) | IC50 (HepG2 cells [3]; [5]) | MMP assays IC50 (µM) Rat Hepatocytes (rat primary hepatocytes [4]) | IC50 (HepG2 cells [3]; [6]) | MMP assays IC50 (µM) HepG2 (HepG2 cells [1]) | MMP assays IC50 (µM) qHTS-HepG2 (HepG2 cells [3]) | IC50 (rat primary hepatocytes [4]) | IC50 (rat primary hepatocytes [4]; Rattus norvegicus, Hepatocyte)
1 | COc1cc([C@@H]2c3cc4c(cc3[C@@H](O)[C@H]3COC(=O)[C@H]23)OCO4)cc(OC)c1O [4'-Demethylepipodophyllotoxin] | -63% | 2.18 µM | inactive | -51±8% | 2.66 ± 3.92 µM | inactive | – | – | – | – | –
2 | CCC[CH2][Sn]([CH2]CCC)([CH2]CCC)[CH2]CCC [Tetrabutyltin] | -98% | 11.2 µM | inactive | -100±1% | – | inactive | 5.66 ± 1.03 µM | – | – | – | –
3 | CCCC[P+](CCCC)(CCCC)CCCC.[Cl-] [Tetrabutylphosphonium chloride] | inactive | – | -108+36% | inactive | – | – | – | inactive | inactive | 15.3 ± 5 µM | –
4 | c1ccc(C2(N3CCCC3)CCCCC2)cc1 [Rolicyclidine] | inactive | – | inactive | -97±15% | – | inactive | 22.3 ± 2.32 µM | inactive | – | – | –
5 | CC(=O)O[Si](C)(OC(C)=O)OC(C)=O [Methylsilanetriyl triacetate] | inactive | – | inactive | -67±10% | – | inactive | 29.1 ± 16.4 µM | inactive | – | – | –
6 | C=C(C)C(=O)OCC(O)COc1ccc(C(C)(C)c2ccc(OCC(O)COC(=O)C(=C)C)cc2)cc1 (centres unmarked) [Bisphenol A glycidyl methacrylate] | -118% | 15.8 µM | -70±50% | -121±28% | 12.2 ± 11.9 µM | – | – | – | – | 38.1 ± 9.22 µM | –
7 | O=C1NCN(c2ccccc2)C12CCN(CCCOc1ccc(F)cc1)CC2 [AMI-193] | -75% | 7.74 µM | -37±21% | -73±11% | 5.82 ± 3.05 µM | – | – | – | – | 26 ± 12.2 µM | –
8 | CCCCC(CC)C(=O)[O-].CCCCC(CC)C(=O)[O-].[Ba+2] (centres unmarked) [Barium bis(2-ethylhexanoate)] | inactive | – | -43±30% | -58±20% | 15.4 ± 10.3 µM | inactive | – | inactive | – | – | –
9 | Cl.Cl.Nc1ccc(-c2ccc(N)cc2)cc1 [Benzidine dihydrochloride] | -67% | 17.7 µM | inactive | inactive | – | inactive | – | – | inactive | – | –
10 | CCCCCCCCCCn1cc[n+](CCCCCCCCCC)c1C.[Cl-] [1,3-Didecyl-2-methylimidazolium chloride] | -104% | 3.16 µM | -110±29% | -83±13% | 3.86 ± 4.19 µM | – | – | – | – | 26.2 ± 3.35 µM | –
11 | CC(=Cc1ccccc1)[N+](=O)[O-] [(2-Nitro-1-propenyl)benzene] | inactive | – | -107±47% | -105±10% | 38.6 ± 15.3 µM | – | – | inactive | – | – | 25.9 ± 8.35 µM
12 | O=C(NCc1cccnc1)Nc1ccc([N+](=O)[O-])cc1 [Pyrinuron] | -81% | 28.2 µM | -108±48% | -87±26% | – | – | 26.3 ± 1.71 µM | – | – | 25.8 ± 10.1 µM | –
13 | CC#C[C@]1(O)CC[C@H]2[C@@H]3CCC4=CC(=O)CCC4=C3[C@@H](c3ccc(N(C)C)cc3)C[C@@]21C | inactive | – | inactive | -97±21% | – | inactive | 16.1 ± 32.5 µM | inactive | – | – | –
14 | [Ba+2].[Cl-].[Cl-] [Barium chloride] | -46% | 39.8 µM | inactive | -68±11% | 16.6 ± 8.5 µM | inactive | – | – | – | – | –
15 | [F][Sn]([c]1ccccc1)([c]1ccccc1)[c]1ccccc1 [Triphenyltin fluoride] | -104% | 1.78 µM | -81±23% | -106±5% | – | – | 0.47 ± 0.31 µM | – | – | 6.17 ± 2.51 µM | –
16 | Cc1cnc(NC(=O)C2=C(O)c3ccccc3S(=O)(=O)N2C)s1 [Meloxicam] | inactive | – | inactive | – | – | inactive | 14.5 µM | inactive | – | – | –
